Test results reported in PMC12174747, “Ligand Screening and Discovery Using Cocktail Soaking and Automated Microcrystal Electron Diffraction” (Chemmedchem, 2025).
Structures can show the parent of a compound that is named as a salt. Where two headings read alike, the source gives them in different places.

How the values were obtained:
thermolysin = target: T1, thermolysin (Bacillus thermoproteolyticus, UniProt P00800); assay: MicroED crystal structure (cocktail and individual soaking) and microscale thermophoresis; assay type: binding
T1 construct: gene npr
T1 sequence (P00800 233-548): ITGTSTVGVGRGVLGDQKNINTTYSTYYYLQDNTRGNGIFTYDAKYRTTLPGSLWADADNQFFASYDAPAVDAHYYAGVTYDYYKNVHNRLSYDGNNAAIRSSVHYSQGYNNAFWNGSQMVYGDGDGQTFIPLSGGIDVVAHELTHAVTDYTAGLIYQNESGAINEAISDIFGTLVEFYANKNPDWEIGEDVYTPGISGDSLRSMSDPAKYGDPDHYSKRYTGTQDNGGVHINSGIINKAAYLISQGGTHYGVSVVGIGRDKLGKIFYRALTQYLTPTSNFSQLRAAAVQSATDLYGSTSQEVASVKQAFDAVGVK

proteinase K = target: T2, proteinase K (Parengyodontium album, UniProt P06873); assay: as above; assay type: binding
T2 construct: gene PROK
T2 sequence (P06873 106-384): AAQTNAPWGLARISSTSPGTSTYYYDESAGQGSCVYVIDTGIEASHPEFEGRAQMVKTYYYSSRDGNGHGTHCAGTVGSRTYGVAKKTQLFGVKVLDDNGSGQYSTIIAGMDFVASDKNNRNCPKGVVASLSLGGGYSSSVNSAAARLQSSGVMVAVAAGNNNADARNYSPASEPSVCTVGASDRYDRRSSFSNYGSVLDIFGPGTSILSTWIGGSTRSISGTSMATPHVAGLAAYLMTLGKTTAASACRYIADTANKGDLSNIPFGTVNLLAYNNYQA

O=C(O)CNC(=O)C(CS)Cc1ccccc1 (stereo not drawn) [compound 2, thiorphan]
Kd (thermolysin; read-out: Kd): 4 µM

CC(C)C[C@H](NP(=O)(O)O[C@@H]1O[C@@H](C)[C@H](O)[C@@H](O)[C@H]1O)C(=O)N[C@@H](Cc1c[nH]c2ccccc12)C(=O)O [compound 1, phosphoramidon disodium salt]
Kd (thermolysin): 0.345 µM

benzenesulfonyl fluoride hydrochloride [compound 4]
Kd (proteinase K): 260 µM
